Data: paper PMC4303209, “A novel phosphatidylinositol 3-kinase (PI3K) inhibitor directs a potent FOXO-dependent, p53-independent cell cycle arrest phenotype characterized by the differential induction of a subset of FOXO-regulated genes” (Breast Cancer Research : BCR, 2014)

System: MCF-7 breast cancer cells
Assay: Microarray gene expression analysis (Agilent whole human genome 4 x 44K; compound vs DMSO, LIMMA log2 fold change)
Format: cell-based
[1] = MCF-7, 100nM, six hours, 1.5-fold expression change threshold

## Cn1ncc2c(N3CCOCC3)nc(-c3cccc(O)c3)nc21 [ETP-45658]
Gene 114799, cell cycle genes
  ESCO1 log2FC: 0.560
Gene 115426, cell cycle genes
  UHRF2 log2FC: 0.500
Gene 116138, cell cycle genes
  KLHDC3 log2FC: -0.048
Gene 116840, cell cycle genes
  CNTROB log2FC: -0.102
Gene 121441, cell cycle genes
  NEDD1 log2FC: 0.443
Gene 124790, cell cycle genes
  HEXIM2 log2FC: 0.577
Gene 127829, cell cycle genes
  ARL8A log2FC: 0.446
Gene 127933, cell cycle genes
  UHMK1 log2FC: -0.099
Gene 128239, cell cycle genes
  IQGAP3 log2FC: 0.155
Gene 129401, cell cycle genes
  NUP35 log2FC: -0.169
Gene 129531, cell cycle genes
  MITD1 log2FC: 0.836
Gene 131870, cell cycle genes
  NUDT16 log2FC: -0.327
Gene 132625, cell cycle genes
  ZFP42 log2FC: 0.031
Gene 133746, cell cycle genes
  JMY log2FC: 1.016
Gene 135458, cell cycle genes
  HUS1B log2FC: -0.791
Gene 140609, cell cycle genes
  NEK7 log2FC: 0.053
Gene 140690, cell cycle genes
  CTCFL log2FC: -0.021
Gene 143471, cell cycle genes
  PSMA8 log2FC: 0.068
Gene 143686, cell cycle genes
  SESN3 log2FC: 0.057
Gene 143689, cell cycle genes
  PIWIL4 log2FC: 0.405
Gene 144455, cell cycle genes
  E2F7 log2FC: -0.474
Gene 144715, cell cycle genes
  RAD9B log2FC: 0.061
Gene 147040, cell cycle genes
  KCTD11 log2FC: 0.142
Gene 149628, cell cycle genes
  PYHIN1 log2FC: -0.052
Gene 151242, cell cycle genes
  PPP1R1C log2FC: 0.132
Gene 151246, cell cycle genes
  SGOL2 log2FC: 0.811
Gene 151648, cell cycle genes
  SGOL1 log2FC: 0.489
Gene 152015, cell cycle genes
  ROPN1B log2FC: 0.058
Gene 153090, cell cycle genes
  DAB2IP log2FC: -0.220
Gene 157313, cell cycle genes
  CDCA2 log2FC: 0.547
Gene 157570, cell cycle genes
  ESCO2 log2FC: 0.730
Gene 163786, cell cycle genes
  SASS6 log2FC: 0.483
Gene 164684, cell cycle genes
  WBP2NL log2FC: -0.063
Gene 168451, cell cycle genes
  THAP5 log2FC: 0.256
Gene 201163, cell cycle genes
  FLCN log2FC: 0.968
Gene 201254, cell cycle genes
  STRA13 log2FC: -0.358
Gene 203068, cell cycle genes
  TUBB log2FC: -0.709
Gene 221035, cell cycle genes
  REEP3 log2FC: -0.240
Gene 221477, cell cycle genes
  C6orf89 log2FC: -0.508
Gene 245711, cell cycle genes
  SPDYA log2FC: -0.071
Gene 246184, cell cycle genes
  CDC26 log2FC: -0.688
Gene 259266, cell cycle genes
  ASPM log2FC: 1.100
Gene 283375, cell cycle genes
  SLC39A5 log2FC: -0.022
Gene 283431, cell cycle genes
  GAS2L3 log2FC: 0.617
Gene 286053, cell cycle genes
  NSMCE2 log2FC: 1.151
Gene 286826, cell cycle genes
  LIN9 log2FC: 1.274
Gene 339967, cell cycle genes
  TMPRSS11A log2FC: 0.046
Gene 348995, cell cycle genes
  NUP43 log2FC: 0.749
Gene 378708, cell cycle genes
  APITD1 log2FC: 0.144
Gene 387893, cell cycle genes
  SETD8 log2FC: 0.093
Gene 415116, cell cycle genes
  PIM3 log2FC: 0.693
Gene 440822, cell cycle genes
  PIWIL3 log2FC: -0.066
MCF-7
  expression of FOXO-dependent apoptosis genes including TNFSF10, BCL211 and FASLG (array): did not significantly change
[1]
  number of induced (upregulated) genes: 1,549
  number of repressed (downregulated) genes: 989
MCF-7, FOXO target genes
  CCND1, SPRY2 and MMP9 expression (array): significantly downregulated
  expression of CCNG2, KLHL24, DDIT3, CITED2 and RICTOR (array): significantly upregulated
MCF-7, upregulated genes
  bound FOXO sites (transcription factor enrichment analysis): highly significant increase
Cell cycle genes
  MAD1L1 log2FC: -0.032
Gene ACSL5 (51703), apoptosis genes
  ACSL5 log2FC: 0.011
Gene ACTR1A (Gene 10121), cell cycle genes
  log2FC: -0.180
Gene ADAMTS20 (80070), apoptosis genes
  ADAMTS20 log2FC: 0.014
Gene ADIPOQ (9370), apoptosis genes
  ADIPOQ log2FC: 0.013
Gene ADRA1A (148), apoptosis genes
  ADRA1A log2FC: 0.060
Gene AGTR2 (186), apoptosis genes
  AGTR2 log2FC: 0.004
Gene AKAP8 (Gene 10270), cell cycle genes
  log2FC AKAP8: -0.037
Gene ALB (213), apoptosis genes
  ALB log2FC: -0.050
Gene ALOX12 (239), apoptosis genes
  ALOX12 log2FC: 0.083
Gene ALX3 (257), apoptosis genes
  ALX3 log2FC: -0.018
Gene ALX4 (60529), apoptosis genes
  ALX4 log2FC: -0.043
Gene ANAPC13 (Gene 25847), cell cycle genes
  log2FC: -0.342
Gene ANKRD13C (81573), apoptosis genes
  ANKRD13C log2FC: 0.077
Gene APBB1 (322), apoptosis genes
  APBB1 log2FC: 0.078
Gene APOH (350), apoptosis genes
  APOH log2FC: -0.009
Gene AQP1 (358), apoptosis genes
  AQP1 log2FC: -0.015
Gene ARHGAP10 (79658), apoptosis genes
  ARHGAP10 log2FC: -0.010
Gene ARHGEF6 (9459), apoptosis genes
  ARHGEF6 log2FC: -0.041
Gene ARHGEF16 (27237), apoptosis genes
  ARHGEF16 log2FC: 0.078
Gene ARHGEF18 (23370), apoptosis genes
  ARHGEF18 log2FC: -0.051
Gene ATOH1 (474), apoptosis genes
  ATOH1 log2FC: -0.034
Gene ATPIF1 (93974), apoptosis genes
  ATPIF1 log2FC: 0.069
Gene ATR (Gene 545), cell cycle genes
  log2FC: 0.346
Gene BAD (Gene 572), cell cycle genes
  log2FC: 0.276
Gene BCL2L10 (10017), apoptosis genes
  BCL2L10 log2FC: -0.024
Gene BDKRB2 (624), apoptosis genes
  BDKRB2 log2FC: 0.060
Gene BIRC2 (329), apoptosis genes
  BIRC2 log2FC: 0.082
Gene BIRC8 (112401), apoptosis genes
  BIRC8 log2FC: -0.014
Gene BMP2 (650), apoptosis genes
  BMP2 log2FC: -0.038
Gene BMP4 (Gene 652), cell cycle genes
  log2FC: 0.407
Gene BMP5 (653), apoptosis genes
  BMP5 log2FC: 0.022
Gene BOK (666), apoptosis genes
  BOK log2FC: -0.021
Gene BRE (Gene 9577), cell cycle genes
  log2FC: -0.322
Gene BTK (695), apoptosis genes
  BTK log2FC: -0.064
Gene BUB1B (Gene 701), cell cycle genes
  log2FC: 0.344
Gene C1QBP (708), apoptosis genes
  C1QBP log2FC: 0.052
Gene C3orf38 (285237), apoptosis genes
  C3orf38 log2FC: -0.027
Gene CAMK2B (Gene 816), cell cycle genes
  log2FC: -0.123
Gene CAPN3 (825), apoptosis genes
  CAPN3 log2FC: 0.007
Gene CAPN3 (Gene 825), cell cycle genes
  log2FC CAPN3: 0.007
Gene CARD9 (64170), apoptosis genes
  CARD9 log2FC: -0.027
Gene CARD14 (79092), apoptosis genes
  CARD14 log2FC: 0.026
Gene CASP3 (Gene 836), cell cycle genes
  log2FC: 0.546
Gene CASP10 (843), apoptosis genes
  CASP10 log2FC: -0.013
Gene CASP12 (120329), apoptosis genes
  CASP12 log2FC: 0.004
Gene CCK (885), apoptosis genes
  CCK log2FC: -0.026
Gene CCL19 (6363), apoptosis genes
  CCL19 log2FC: -0.021
Gene CCNB2 (Gene 9133), cell cycle genes
  log2FC: 0.253
Gene CCNH (Gene 902), cell cycle genes
  log2FC: 0.426
Gene CCNT2 (Gene 905), cell cycle genes
  log2FC: 0.221
Gene CD38 (952), apoptosis genes
  CD38 log2FC: -0.014
Gene CD40LG (959), apoptosis genes
  CD40LG log2FC: -0.031
Gene CD248 (57124), apoptosis genes
  CD248 log2FC: -0.012
Gene CDC73 (Gene 79577), cell cycle genes
  log2FC: 0.443
Gene CDH1 (999), apoptosis genes
  CDH1 log2FC: 0.047
Gene CDH13 (Gene 1012), cell cycle genes
  log2FC CDH13: -0.017
Gene CDK2AP1 (Gene 8099), cell cycle genes
  log2FC CDK2AP1: -0.041
Gene CDK5 (1020), apoptosis genes
  CDK5 log2FC: -0.089
Gene CDK5RAP1 (Gene 51654), cell cycle genes
  log2FC CDK5RAP1: 0.018
Gene CDKN2B (Gene 1030), cell cycle genes
  log2FC CDKN2B: 0.013
Gene CENPJ (Gene 55835), cell cycle genes
  log2FC: 0.293
Gene CENPK (Gene 64105), cell cycle genes
  log2FC: 0.519
Gene CETN3 (Gene 1070), cell cycle genes
  log2FC: 0.369
Gene CHEK2 (Gene 11200), cell cycle genes
  log2FC: 0.312
Gene CHIA (27159), apoptosis genes
  CHIA log2FC: -0.023
Gene CIDEA (1149), apoptosis genes
  CIDEA log2FC: -0.026
Gene CLC (1178), apoptosis genes
  CLC log2FC: -0.009
Gene CLEC5A (23601), apoptosis genes
  CLEC5A log2FC: -0.012
Gene CLSPN (63967), apoptosis genes
  CLSPN log2FC: 0.066
Gene CNTFR (1271), apoptosis genes
  CNTFR log2FC: -0.014
Gene COL2A1 (1280), apoptosis genes
  COL2A1 log2FC: 0.036
Gene COL4A3 (1285), apoptosis genes
  COL4A3 log2FC: 0.173
Gene COMP (1311), apoptosis genes
  COMP log2FC: -0.018
Gene COPS5 (Gene 10987), cell cycle genes
  log2FC: 0.503
Gene CRLF3 (Gene 51379), cell cycle genes
  log2FC: 0.438
Gene CSNK2B (Gene 1460), cell cycle genes
  log2FC: -0.263
Gene CST3 (1471), apoptosis genes
  CST3 log2FC: -0.001
Gene CTLA4 (1493), apoptosis genes
  CTLA4 log2FC: -0.015
Gene CXCR4 (7852), apoptosis genes
  CXCR4 log2FC: -0.044
Gene CYR61 (3491), apoptosis genes
  CYR61 log2FC: -0.093
Gene DAPK2 (23604), apoptosis genes
  DAPK2 log2FC: 0.127
Gene DAXX (1616), apoptosis genes
  DAXX log2FC: 0.003
Gene DAXX (Gene 1616), cell cycle genes
  log2FC DAXX: 0.003
Gene DCLRE1B (Gene 64858), cell cycle genes
  log2FC: -0.240
Gene DDX11 (Gene 1663), cell cycle genes
  log2FC: -0.382
Gene DDX47 (51202), apoptosis genes
  DDX47 log2FC: 0.072
Gene DEDD2 (162989), apoptosis genes
  DEDD2 log2FC: 0.036
Gene DFFB (1677), apoptosis genes
  DFFB log2FC: -0.039
Gene DIAPH2 (Gene 1730), cell cycle genes
  log2FC: 0.484
Gene DIRAS3 (Gene 9077), cell cycle genes
  log2FC DIRAS3: 0.0064
Gene DMPK (1760), apoptosis genes
  DMPK log2FC: -0.105
Gene DNM2 (1785), apoptosis genes
  DNM2 log2FC: -0.047
Gene DPF1 (8193), apoptosis genes
  DPF1 log2FC: -0.079
Gene ECD (Gene 11319), cell cycle genes
  log2FC ECD: -0.009
Gene EGR3 (1960), apoptosis genes
  EGR3 log2FC: -0.131
Gene EGR4 (1961), apoptosis genes
  EGR4 log2FC: -0.00345
Gene ELMO1 (9844), apoptosis genes
  ELMO1 log2FC: 0.077
Gene EPB41L3 (23136), apoptosis genes
  EPB41L3 log2FC: -0.033
